According to PMC12430278, “A Simple and Reliable Method for the Determination of Isorhapontigenin in Murine Biological Matrices: Application in a Tissue Distribution Study” (Molecules, 2025):
Read-outs that look alike come from different tables or passages of the source.

Key:
[1] = Stability of ISO in tissue homogenates; assay type: in vitro ADME; details: mouse; for remaining at 6 h, 45 ng/mL / remaining at 6 h, 1600 ng/mL: read-out: Stability Remaining (%, Mean ± SD) Short-Term Stability (6 h on Ice)
From the text: In bioanalysis, analyte stability in biological matrices is crucial for ensuring accurate and reliable quantification. Instability can result in degradation or transformation during sample collection, storage, or processing, potentially compromising data integrity and study outcomes. Therefore, the stability of ISO in plasma was thoroughly evaluated under various storage conditions (Table 5). Assessing ISO stability in intact tissues is challenging, as replicating the native tissue environment is difficult. Accordingly, only short-term stability (6 h on ice) was assessed in tissue homogenates (Table 6). For post-preparative stability, hepatic homogenate—the most complex matrix—was selected as a representative.
For tissue samples, namely brain, fat, heart, small intestine, large intestine, kidney, liver, lung, muscle, spleen, and stomach, approximately 35 mg of each tissue was weighed and finely minced with scissors. The samples were homogenized in a 0.2% ascorbic acid solution (freshly prepared daily) in 50% methanol (v/v) at a ratio of 1:5 (w/v) for up to three cycles using a high-throughput tissue homogenizer (Wonbio-L, Wonbio, Shanghai, China) operating at 60 Hz for 60 s per cycle. Subsequently, three volumes of acetonitrile (containing IS at 400 ng/mL) were added to one volume of tissue homogenate. Following vigorous vortexing, the samples were centrifuged at 1902× g for 10 min at 15 °C. The clear supernatant was carefully transferred into an HPLC vial.
The stability of ISO was evaluated under various storage conditions. Stock solution stability was assessed after storage at room temperature (25 °C) and –20 °C. The stability of ISO in plasma was examined under the following conditions: short-term storage (25 °C for 24 h), long-term storage (–80 °C for 52 days), three freeze–thaw cycles, and post-preparative stability (samples kept in an autosampler at 4 °C for more than 24 h). As it is difficult to evaluate ISO stability directly in tissues, only the short-term stability in tissue homogenates was assessed (6 h on ice). Similarly, post-preparative stability in processed tissue samples was assessed using liver homogenate as a representative, due to the complexity of the hepatic matrix. Stability was considered acceptable if 85–115% of the initial ISO concentration remained.

[2] = parameters: method as in PMID 39456808; details: Sprague Dawley rats, two weeks daily oral 100 µmol/kg/day; cited from earlier work

COc1cc(/C=C/c2cc(O)cc(O)c2)ccc1O [ISO, trans-3,5,4′-trihydroxy-3′-methoxystilbene] gave a remaining at 6 h, 45 ng/mL ([1]; brain homogenate, 45.0 ng/mL) of 101 ± 2.1%, a remaining at 6 h, 1600 ng/mL ([1]; brain homogenate, 1600 ng/mL) of 95.9 ± 1.7% and a remaining at 6 h, 45 ng/mL ([1]; fat homogenate, 45.0 ng/mL) of 101 ± 4.4%. It also gave a remaining at 6 h, 1600 ng/mL ([1]; fat homogenate, 1600 ng/mL) of 96.8 ± 2.5%, a remaining at 6 h, 45 ng/mL ([1]; heart homogenate, 45.0 ng/mL) of 93.8 ± 3.4% and a remaining at 6 h, 1600 ng/mL ([1]; heart homogenate, 1600 ng/mL) of 106 ± 2%. For the same molecule, the remaining at 6 h, 45 ng/mL ([1]; kidney homogenate, 45.0 ng/mL) was 96.8 ± 2.6%, the remaining at 6 h, 1600 ng/mL ([1]; kidney homogenate, 1600 ng/mL) was 97.4 ± 2.8% and the remaining at 6 h, 45 ng/mL ([1]; large intestine homogenate, 45.0 ng/mL) was 92.6 ± 2.9%. For the same molecule, the remaining at 6 h, 1600 ng/mL ([1]; large intestine homogenate, 1600 ng/mL) was 90.3 ± 3.6%, the remaining at 24 h, 45 ng/mL ([1]; liver homogenate, 45.0 ng/mL, read-out: Stability Remaining (%, Mean ± SD) Post-Preparative Stability (More Than 24 h at 4 °C)) was 105 ± 2.2% and the remaining at 6 h, 45 ng/mL ([1]; liver homogenate, 45.0 ng/mL) was 103 ± 2.1%. For the same molecule, the remaining at 24 h, 1600 ng/mL ([1]; liver homogenate, 1600 ng/mL, read-out: Stability Remaining (%, Mean ± SD) Post-Preparative Stability (More Than 24 h at 4 °C)) was 94.9 ± 1%, the remaining at 6 h, 1600 ng/mL ([1]; liver homogenate, 1600 ng/mL) was 97.8 ± 1.2% and the remaining at 6 h, 45 ng/mL ([1]; lung homogenate, 45.0 ng/mL) was 97.3 ± 4%. For the same molecule, the remaining at 6 h, 1600 ng/mL ([1]; lung homogenate, 1600 ng/mL) was 101 ± 1.7%, the remaining at 6 h, 45 ng/mL ([1]; muscle homogenate, 45.0 ng/mL) was 102 ± 5.5% and the remaining at 6 h, 1600 ng/mL ([1]; muscle homogenate, 1600 ng/mL) was 95 ± 2.5%. For the same molecule, the remaining at 6 h, 45 ng/mL ([1]; small intestine homogenate, 45.0 ng/mL) was 91.8 ± 4.8%, the remaining at 6 h, 1600 ng/mL ([1]; small intestine homogenate, 1600 ng/mL) was 92.9 ± 3.8% and the remaining at 6 h, 45 ng/mL ([1]; spleen homogenate, 45.0 ng/mL) was 92.7 ± 6%. For the same molecule, the remaining at 6 h, 1600 ng/mL ([1]; spleen homogenate, 1600 ng/mL) was 94.3 ± 4.3%, the remaining at 6 h, 45 ng/mL ([1]; stomach homogenate, 45.0 ng/mL) was 95 ± 2.9% and the remaining at 6 h, 1600 ng/mL ([1]; stomach homogenate, 1600 ng/mL) was 97.2 ± 2.2%. The Blood cholesterol levels [2] was “healthier blood cholesterol levels”, the Body weight gain [2] was “less body weight gain” and the Toxicity [2] was “no significant toxicity was observed”.
